# Counter-ions that a name gives are not always drawn.
# Assays:
# [1] = molecular target: human α-thrombin (Homo sapiens (Human), UniProt P00734); assay: Enzymatic Assay for Thrombin (Boc-VPR-AMC); type: biochemical
# [2] = molecular target: MASP-2 CCP2-SP (Homo sapiens (Human), UniProt O00187); assay: MASP-2 co-crystallization, X-ray crystallography and structure analysis (H-bonds, van der Waals contacts); parameters: van der Waals contact distance, MASP-2 HIS 483 atom CD2 / van der Waals contact distance, MASP-2 HIS 483 atom NE2 / van der Waals contact distance, SER 654 C to compound atom / van der Waals contact distance, SER 654 O to compound atom / van der Waals contact distance, TRP 655 C to compound atom / van der Waals contact distance, MASP-2 GLY 528 atom CA / van der Waals contact distance TRP 655 atom CZ3 / van der Waals contact distance TRP 655 atom N / van der Waals contact distance TRP 655 atom CE3 / van der Waals contact distance GLY 656 atom C / van der Waals contact distance GLY 656 atom CA / van der Waals contact distance GLY 656 atom O / van der Waals contact distance, MASP-2 TYR 607 atom CD1 / van der Waals contact distance, MASP-2 PRO 606 atom O / d(C3,CA1) / d(CA1,N1)2 / d(H4,O1) / d(H4,O2) / d(O1,O2) / d(CA1,O2) / d(CA6,O1) / d(CA6,O2) / d(CA1,C5) / d(O2,H3) / d(N2,C2) / d(CA5,N2) / d(N2,C4) / d(N2,C6) / d(N2,CA3) / d(N2,O3) / d(O4,H2): unit not given beside the values; conditions: for H-bond distance to MASP-2 ASP 627 atom OD2: ASP 627 OD2; for H-bond distance to MASP-2 GLY 656 atom N: GLY 656 N; for H-bond distance to MASP-2 GLY 656 atom O: GLY 656 O; for H-bond distance to MASP-2 SER 654 atom O: SER 654 O; for H-bond distance to MASP-2 SER 657 atom OG: SER 657 OG; for Ligand-pharmacophore element distance, pharmacophore element C2 / Ligand-pharmacophore element distance, pharmacophore element C3 / Ligand-pharmacophore element distance, pharmacophore element C4 / Ligand-pharmacophore element distance, pharmacophore element C5 / Ligand-pharmacophore element distance, pharmacophore element C6 / Ligand-pharmacophore element distance, pharmacophore element C7 / Ligand-pharmacophore element distance, pharmacophore element CA1 / Ligand-pharmacophore element distance, pharmacophore element CA2 / Ligand-pharmacophore element distance, pharmacophore element CA3 / Ligand-pharmacophore element distance, pharmacophore element CA4 / Ligand-pharmacophore element distance, pharmacophore element CA5 / Ligand-pharmacophore element distance, pharmacophore element CA6: Table A4-1; for Pharmacophore protein distance to MET_658 (first MET_658 column): 6th residue column; for Pharmacophore protein distance to TRP_655: pharmacophore elements C6, CA3, O3, H1;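 on Ligand-pharmacophore element distance, pharmacophore element C2: distance from averaged pharmacophore element to bound ligand; missing value means element absent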;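 on Ligand-pharmacophore element distance, pharmacophore element C3: distance from averaged pharmacophore element to bound ligand; missing value means element absent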;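 on Ligand-pharmacophore element distance, pharmacophore element C4: distance from averaged pharmacophore element to bound ligand; missing value means element absent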;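 on Ligand-pharmacophore element distance, pharmacophore element C5: distance from averaged pharmacophore element to bound ligand; missing value means element absent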
# MASP-2 CCP2-SP, sequence (O00187 445-686): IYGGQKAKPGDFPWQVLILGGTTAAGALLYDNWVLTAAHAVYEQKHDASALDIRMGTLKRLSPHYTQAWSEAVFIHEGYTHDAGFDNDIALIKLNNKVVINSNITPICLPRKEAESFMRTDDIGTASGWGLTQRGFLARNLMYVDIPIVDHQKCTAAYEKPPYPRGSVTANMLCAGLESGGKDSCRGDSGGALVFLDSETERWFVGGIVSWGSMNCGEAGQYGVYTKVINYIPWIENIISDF
# MASP-2 CCP2-SP, sequence (O00187 364-432 partner): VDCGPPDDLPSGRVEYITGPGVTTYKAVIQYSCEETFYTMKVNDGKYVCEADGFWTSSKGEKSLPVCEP
# Outline: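 Soaked crystals of recombinant CCP2-SP (E. coli) yield the structures, phased by molecular replacement on 1Q3X pieces. Hydrophobic or nonbonded contacts can also cover atom pairs that are potential hydrogen bonds.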
# [3] = tested on: Lectin Pathway; assay: Lectin Pathway Activation Assay in Human Serum (mannan-coated ELISA, C3c detection); type: biochemical; conditions: 1% human serum
# Protocol: Microtiter ELISA plate was coated with mannan from Saccharomyces cerevisiae (Sigma-Aldrich, M7504) for overnight at 4° C. in coating buffer [15 mM Na2CO3, 35 mM NaHCO3].
# [4] = molecular target: MASP-2 (CCP1-CCP2-SP) (Homo sapiens (Human), UniProt O00187); assay: Enzymatic Assay for MASP-2 (fluorogenic substrate); type: biochemical
# MASP-2 (CCP1-CCP2-SP), sequence (O00187 445-686): as the sequence (O00187 445-686) above
# [5] = Table A2-9, ARG 630, AA atoms CG, CZ
# [6] = Table A5-1 pharmacophore: distance between elements, S2/S1 region
# [7] = Table A5-2 pharmacophore distance, S3/S4 region
# [8] = Table A7-1, between pharmacophore elements of the bound compound
# [9] = Table A7-2, between pharmacophore elements of the bound compound
# [10] = Table A8-6, nearest protein atom in cell to the left
structure (smiles),measurement,setting,value
C[C@H](NC(=O)[C@H](N)C1Cc2ccccc2C1)C(=O)NCc1ccc2nc(N)[nH]c2c1 [compound 1059],Ki,[1],> 25 µM
same,H-bond distance to MASP-2 ASP 627 atom OD1,"[2]; Table A1 (H-Bonds), ASP 627 OD1",2.99
same,H-bond distance to MASP-2 ASP 627 atom OD2,[2]; Table A1 (H-Bonds),2.95
same,H-bond distance to MASP-2 GLN 665 atom O,"[2]; Table A1 (H-Bonds), GLN 665 O",3.31
same,H-bond distance to MASP-2 GLY 656 atom N,[2]; Table A1 (H-Bonds),3.13
same,H-bond distance to MASP-2 GLY 656 atom O,[2]; Table A1 (H-Bonds),2.94
same,H-bond distance to MASP-2 SER 654 atom O,[2]; Table A1 (H-Bonds),2.95
same,H-bond distance to MASP-2 SER 657 atom O,"[2]; Table A1 (H-Bonds), SER 657 O",2.77
same,H-bond distance to MASP-2 SER 657 atom OG,[2]; Table A1 (H-Bonds),2.94
same,"van der Waals contact distance, MASP-2 HIS 483 atom CD2",[2]; Table A2-1,3.69
same,"van der Waals contact distance, MASP-2 TYR 607 atom CD1",[2]; Table A2-4,3.89
same,"van der Waals contact distance, MASP-2 amino acid atom to compound atom","[2]; Table A2-5: TYR 607 (CE1, CE2, OH), PRO 608 (CD, CG), SER 611 (CA)",3.89
same,"van der Waals contact distance, MASP-2 amino acid atom to compound atom",[2]; [5],3.14
same,"van der Waals contact distance, VAL 653 CG1 to compound atom",[2]; Table A2-11,3.81
same,van der Waals contact distance TRP 655 atom CZ3,"[2]; Table A2-13, MASP-2 TRP 655 CZ3",3.84
same,van der Waals contact distance TRP 655 atom O,"[2]; Table A2-13, MASP-2 TRP 655 O",3.88
same,"Ligand-pharmacophore element distance, pharmacophore element C2",[2],1.86
same,"Ligand-pharmacophore element distance, pharmacophore element C3",[2],0
same,"Ligand-pharmacophore element distance, pharmacophore element C4",[2],0
same,"Ligand-pharmacophore element distance, pharmacophore element C5",[2],0
same,"Ligand-pharmacophore element distance, pharmacophore element C6",[2],0
same,"Ligand-pharmacophore element distance, pharmacophore element C7",[2],0
same,"Ligand-pharmacophore element distance, pharmacophore element CA1",[2],1.27
same,"Ligand-pharmacophore element distance, pharmacophore element CA2",[2],0.8
same,"Ligand-pharmacophore element distance, pharmacophore element CA3",[2],0
same,"Ligand-pharmacophore element distance, pharmacophore element CA4",[2],0
same,"Ligand-pharmacophore element distance, pharmacophore element CA5",[2],0
same,"Ligand-pharmacophore element distance, pharmacophore element CA6",[2],0
same,"d(CA1,N1)",[2]; [6],1.85
same,"d(CA1,O1)",[2]; [6],5.32
same,"d(CA1,O2)",[2]; [6],5.00
same,"d(H4,O1)",[2]; [6],4.89
same,"d(H4,O2)",[2]; [6],4.48
same,"d(O1,O2)",[2]; [6],3.20
same,"d(N2,C2)",[2]; [7],3.70
same,"d(N2,CA2)",[2]; [7],5.88
same,"d(O2,H3)",[2]; [7],4.97
same,"d(O2,N2)",[2]; [7],2.67
same,"a(CA1, O1, O2)",[2]; Table A6-1 pharmacophore angle,102.43
same,"a(O1, O2, H4)",[2]; Table A6-1 pharmacophore angle,140.37
same,"A(N1, CA1, O1) a)","[2]; Table A6-1 pharmacophore angle, all compounds with protonatable center N1 except Methyl-amino-pyridine",176.16
same,"a(O1, O2, H3)",[2]; Table A6-2 pharmacophore angle,148.70
same,"a(O1, O2, N2)",[2]; Table A6-2 pharmacophore angle,132.46
same,"a(O2, N2, C2)",[2]; Table A6-2 pharmacophore angle,139.14
same,"a(O2, N2, CA2)",[2]; Table A6-2 pharmacophore angle,153.47
same,"Pharmacophore torsion angle a(H4, O1, O2, H3)",[2]; [8],47.74
same,"Pharmacophore torsion angle a(H4, O1, O2, N2)",[2]; [8],121.97
same,"Pharmacophore torsion angle a(N1, CA1, O2, H4)",[2]; [8],−131.19
same,"Pharmacophore torsion angle a(O1, H4, O2, CA1)",[2]; [8],−89.48
same,"Pharmacophore torsion angle a(O1, O2, N2, C2)",[2]; [8],129.30
same,"Pharmacophore torsion angle a(O1, O2, N2, CA2)",[2]; [9],134.69
same,Pharmacophore protein distance to MET_658 (first MET_658 column),[2]; [10],1.94
same,Pharmacophore protein distance to GLY_528,[2]; [10],3.81
same,Pharmacophore protein distance to PHE_529,[2]; [10],2.97
same,Pharmacophore protein distance to PRO_608,[2]; [10],3.70
same,Pharmacophore protein distance to SER_611,[2]; [10],2.61
same,Pharmacophore protein distance to TRP_655,[2]; [10],3.64
C[C@H](NC(=O)[C@H]1C[C@H](c2ccccc2)CN1)C(=O)NCc1ccc2c(N)nccc2c1 [compound 1090],IC50,[3],0.5 to 5 µM
same,H-bond distance to MASP-2 ASP 627 atom OD2,[2]; Table A1 (H-Bonds),2.8
same,H-bond distance to MASP-2 GLY 656 atom N,[2]; Table A1 (H-Bonds),3.3
same,H-bond distance to MASP-2 GLY 656 atom O,[2]; Table A1 (H-Bonds),2.78
same,H-bond distance to MASP-2 SER 654 atom O,[2]; Table A1 (H-Bonds),2.96
same,H-bond distance to MASP-2 SER 657 atom OG,[2]; Table A1 (H-Bonds),2.73
same,"van der Waals contact distance, MASP-2 HIS 483 atom CD2",[2]; Table A2-1,3.74
same,"van der Waals contact distance, MASP-2 PHE 529 atom CE1",[2]; Table A2-3,3.87
same,"van der Waals contact distance, MASP-2 amino acid atom to compound atom",[2]; Table A2-7 continued: CYS 629 (CA),3.89
same,"van der Waals contact distance, MASP-2 amino acid atom to compound atom","[2]; Table A2-8, CYS 629 / ARG 630, AA atoms CB, N, C, O, CA, CB, CD",3.9
same,"van der Waals contact distance, MASP-2 amino acid atom to compound atom",[2]; [5],3.64
same,"van der Waals contact distance, MASP-2 amino acid atom to compound atom","[2]; Table A2-9 second part, ARG 630, AA atoms N, NE, NH1",3.85
same,van der Waals contact distance SER 657 atom C,"[2]; Table A2-14, MASP-2 SER 657 C, columns c12-c13 (inferred)",3.7
same,"Ligand-pharmacophore element distance, pharmacophore element C2",[2],0
same,"Ligand-pharmacophore element distance, pharmacophore element C3",[2],0
same,"Ligand-pharmacophore element distance, pharmacophore element C4",[2],0
same,"Ligand-pharmacophore element distance, pharmacophore element C5",[2],0
same,"Ligand-pharmacophore element distance, pharmacophore element C6",[2],0
same,"Ligand-pharmacophore element distance, pharmacophore element C7",[2],0
same,"Ligand-pharmacophore element distance, pharmacophore element CA1",[2],0.98
same,"Ligand-pharmacophore element distance, pharmacophore element CA2",[2],0
same,"Ligand-pharmacophore element distance, pharmacophore element CA3",[2],0
same,"Ligand-pharmacophore element distance, pharmacophore element CA4",[2],0
same,"Ligand-pharmacophore element distance, pharmacophore element CA5",[2],0.91
same,"Ligand-pharmacophore element distance, pharmacophore element CA6",[2],0
same,"d(CA1,O1)",[2]; [6],5.59
same,"d(CA1,O2)",[2]; [6],5.11
same,"d(H4,O1)",[2]; [6],3.15
same,"d(H4,O2)",[2]; [6],3.68
same,"d(O1,O2)",[2]; [6],3.38
same,"d(CA5,N2)",[2]; [7],5.09
same,"d(N2,C4)4",[2]; [7],7.94
same,"d(O2,H3)",[2]; [7],5.87
same,"d(O2,N2)",[2]; [7],2.72
same,"a(CA1, O1, O2)",[2]; Table A6-1 pharmacophore angle,100.34
same,"a(O1, O2, H4)",[2]; Table A6-1 pharmacophore angle,121.29
same,"a(O1, O2, H3)",[2]; Table A6-2 pharmacophore angle,152.05
same,"a(O1, O2, N2)",[2]; Table A6-2 pharmacophore angle,140.84
same,"Pharmacophore torsion angle a(H4, O1, O2, H3)",[2]; [8],91.31
same,"Pharmacophore torsion angle a(H4, O1, O2, N2)",[2]; [8],−177.46
same,"Pharmacophore torsion angle a(O1, H4, O2, CA1)",[2]; [8],−92.71
same,"Pharmacophore torsion angle a(O1, O2, N2, CA5)",[2]; [9],134.91
same,Pharmacophore protein distance to MET_658 (first MET_658 column),[2]; [10],2.69
same,Pharmacophore protein distance to MET_658 (second MET_658 column),"[2]; Table A8-6, 9th residue column, nearest protein atom in cell to the left",2.71
same,Pharmacophore protein distance to GLY_528,[2]; [10],3.61
same,Pharmacophore protein distance to PHE_529,[2]; [10],2.77
same,Pharmacophore protein distance to PRO_608,[2]; [10],3.95
same,Pharmacophore protein distance to SER_611,[2]; [10],2.87
same,Pharmacophore protein distance to TRP_655,[2]; [10],3.50
same,Ki,[4],< 0.5 µM
"Cc1ccc(-c2c[nH]c(C(=O)N[C@@H](C)C(=O)NCc3ccc(C(=N)N)cc3)c2)cc1F [compound 1235, (S)—N-(1-((4-Carbamimidoylbenzyl)amino)-1-oxopropan-2-yl)-4-(3-fluoro-4-methylphenyl)-1H-pyrrole-2-carboxamide]",Ki,[1],10 to 25 µM
"C[C@H](NC(=O)[C@H]1C[C@H](Cc2ccccc2)CN1)C(=O)NCc1cnc2c(c1)c(Cl)cn2C [compound 1450, (2R,4S)-4-Benzyl-N—((S)-1-(((3-chloro-1-methyl-1H-pyrrolo[2,3-b]pyridin-5-yl)methyl)amino)-1-oxopropan-2-yl)pyrrolidine-2-carboxamide Dihydrochloride]",Ki,[1],2.5 to 10 µM
same,H-bond distance to MASP-2 GLY 656 atom N,[2]; Table A1 (H-Bonds),3.04
same,H-bond distance to MASP-2 GLY 656 atom O,[2]; Table A1 (H-Bonds),2.78
same,H-bond distance to MASP-2 SER 654 atom O,[2]; Table A1 (H-Bonds),2.97
same,"van der Waals contact distance, MASP-2 amino acid atom to compound atom",[2]; Table A2,3.44
same,"van der Waals contact distance, MASP-2 HIS 483 atom CD2",[2]; Table A2-1,3.9
same,"van der Waals contact distance, MASP-2 HIS 483 atom NE2",[2]; Table A2-1,3.88
same,"van der Waals contact distance, MASP-2 GLY 528 atom CA",[2]; Table A2-2,3.89
same,"van der Waals contact distance, SER 654 C to compound atom",[2]; Table A2-11,3.81
same,van der Waals contact distance GLY 656 atom CA,"[2]; Table A2-13, MASP-2 GLY 656 CA",3.75
same,van der Waals contact distance TRP 655 atom N,"[2]; Table A2-13, MASP-2 TRP 655 N",3.66

# Reference: patent publication US12195427B2, “MASP-2 inhibitors and methods of use” (priority 2018, dated 2025)
